These results are taken from patent US7304083B2, “2-iminoimidazole derivatives (2)” (Eisai R&D Management Co., Ltd., priority 2001, dated 2007).

By IC50 is commonly meant the concentration that gives 50% inhibition.

Each structure is given as a SMILES string. Where a name gives a salt, the structure may show the parent alone.

The test system of assay [1] is Vascular smooth muscle cells (rSMC). Kind of assay: Rat smooth muscle cell proliferation assay (thrombin-stimulated, MTT). The assay is classed as cell-based. Conditions: 48 h; male SD rat aorta rSMC, thrombin 0.1 unit/ml, 2 days, MTT OD 590 nm; read-out: Rat SMC IC50. The method, then: [Rat Smooth Muscle Cell Proliferation Assay]
Vascular smooth muscle cells (rSMC) were isolated from male SD rat aorta by the explant method. DMEM medium (Sigma) containing 10% fetal bovine serum (GibcoBRL), streptomycin and penicillin was used as the proliferation medium, and subculture was carried out at 37° C. in the presence of 5% CO2. Culture was initiated after adding 100 μl of rSMC suspension in proliferation medium at a concentration of 1×10^4 cells/ml, to a 96-well plate. After 3 days, cells were rinsed twice with 100 μl of DMEM medium, the medium was exchanged with 100 μl of DMEM medium containing 0.1% albumin (starvation medium), and serum starvation was initiated. […]
Upon adding 20 μl of MTT (3-[4,5-dimethylthiazol-2-yl]-2,5-diphenyltetrazolium bromide) dissolved in DPBS to 7.5 mg/ml, incubation was continued for 4 hours. […] As an index of cell proliferation, the OD 590 nm was measured using a plate reader (EL340, BIO-TEK Instruments Inc.), and the control OD value (OD value in the absence of the test compound) minus the OD value in the presence of the test compound was divided by the control OD value minus the blank OD value (OD value without thrombin stimulation) to determine the inhibition ratio, from which the IC50 value was calculated.

Assay [2] deals with platelet rich plasma (PRP). Kind of assay: Inhibitory effects on platelet aggregation using platelet rich plasma (thrombin-induced). Type of assay: cell-based. Conditions: Homo sapiens, 0.1 h, aggregation initiated with thrombin 0.5–1.5 units/ml, area under aggregation curve over 6 minutes, read-out: Thr IC50. The method, then:
[Inhibitory Effects on Platelet Aggregation Using Platelet Rich Plasma]
Blood was sampled from a healthy adult who had taken no drugs for one week, and 3.8% citric acid (a ratio of 1:9 with respect to the blood) was added as an anticoagulant. The mixture was then centrifuged at 100 g for 10 minutes at room temperature to yield platelet rich plasma (PRP). The PRP-removed blood was further centrifuged at 1000 g for 10 minutes to yield platelet poor plasma (PPP). The number of platelet was counted using a multi-parameter automatic hemocyte counter (K4500, Sysmex), and the PRP was diluted to approximately 300,000/μl with the PPP. The platelet aggregation activity was determined in the following manner using an Aggregometer (MC Medical). […] After addition of thrombin, the aggregation reaction was examined for 6 minutes and the areas under the aggregation curves were compared to determine the inhibition ratio, from which the IC50 value was calculated.

Assay [3] concerns the target T1, PAR1 thrombin receptor (Homo sapiens, UniProt P25116).
T1 construct: centrifuged at 40,000 g for 60 minutes to yield platelet membrane; from tissue; host or cells: platelet membrane prepared from platelet rich plasma of a healthy adult donor
T1 sequence (P25116 22-425): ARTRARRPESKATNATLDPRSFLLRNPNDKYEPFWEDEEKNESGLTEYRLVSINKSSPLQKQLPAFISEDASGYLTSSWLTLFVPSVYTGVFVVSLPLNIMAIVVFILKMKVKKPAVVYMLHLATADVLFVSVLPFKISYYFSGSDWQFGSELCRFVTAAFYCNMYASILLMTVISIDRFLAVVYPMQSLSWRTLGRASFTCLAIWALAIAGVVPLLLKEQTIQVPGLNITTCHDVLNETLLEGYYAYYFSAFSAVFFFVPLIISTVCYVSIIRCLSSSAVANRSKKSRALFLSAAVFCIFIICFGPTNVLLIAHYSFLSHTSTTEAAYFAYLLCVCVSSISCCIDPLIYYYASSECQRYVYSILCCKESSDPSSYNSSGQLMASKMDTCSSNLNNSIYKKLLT
Nature of the assay: Receptor binding assay ([3H] high affinity TRAP, platelet membrane). Conditions: 25 nM [3H] high affinity TRAP, 37° C. for 1 hour, read-out: RBA IC50. As to the method: Blood was sampled from a healthy adult who had taken no drugs for one week, and 3.8% citric acid (a ratio of 1:9 with respect to the blood) was added as an anticoagulant. The mixture was then centrifuged at 100 g for 10 minutes at room temperature to yield platelet rich plasma (PRP). The platelet precipitate obtained by centrifuging the PRP was homogenized with a Dounce homogenizer, and then centrifuged at 40,000 g for 60 minutes to yield platelet membrane. The platelet membrane was suspended in a solution prepared by adding DMSO (dimethyl sulfoxide) at 1% concentration to Buffer 1: a 50 mM Tris-HCl buffer containing 10 mM MgCl2 and 1 mM EGTA (ethylene glycol tetraacetic acid), and the suspension was stored at −80° C. Bovine albumin and DMSO were added to Buffer 1 at 0.1% and 20%, respectively, to make a preparation solution for the test compound. […] Next, 30 μl of liquid scintillator was added for measurement of the radioactivity of the plate using a Top Counter (Packard), the value of the radioactivity in the presence of the test compound minus non-specific binding portion was divided by the specific binding value (the value of the binding in the absence of the compound minus the non-specific binding portion) to determine the binding ratio, from which the IC50 value was calculated. […]

On to `CCC(CC)CCn1ccn(CC(=O)c2cc(C(C)(C)C)c(O)c(C(C)(C)C)c2)c1=N` [Example 1, 1-(3,5-Di-tert-butyl-4-hydroxy-phenyl)-2-[3-(3-ethyl-pentyl)-2-imino-2,3-dihydro-imidazol-1-yl]-ethanone hydrobromide], for which the IC50 in assay [1] worked out at 300 nM; in assay [2], 540 nM; in assay [3] it was 74 nM.
On to `CC(C)(C)c1cc(C(=O)Cn2ccn(Cc3ccccc3)c2=N)cc(C(C)(C)C)c1O` [Example 2, 2-(3-Benzyl-2-imino-2,3-dihydro-imidazol-1-yl)-1-(3,5-di-tert-butyl-4-hydroxy-phenyl)-ethanone hydrobromide], for which the IC50 came to 960 nM in assay [1], 2400 nM in assay [2] and 250 nM in assay [3].
